Data as given in US20090297618A1, “COMPOSITION BENEFICIAL FOR VISUOGNOSIS PERSISTENCE AND USE THEREOF” (Zhejiang Medicine Co., Ltd. Xinchang Pharmaceutical Factory, priority 2008, published 2009).

Tested on: subjects who use video display terminals (VDT) for long time and tend to have asthenopia
Experiment: Human feeding test: detection of visuognosis persistence (asthenopia remission test)
Assay type: in vivo
Settings: after feeding tablets 35 days, once per day, two tablets, compared with before feeding; FIG. 1
Source text: As used herein, the term “visuognosis persistence” is an index for evaluating asthenopia. When the cortical excitability in the human brain reduces, the visual analysis function decreases, in the process of eyes fixating at object, invisible duration will increase and visuognosis duration will decrease. […] X^2 test was used for performance indexes.

Compound `CC1=C[C@H](O)CC(C)(C)[C@H]1/C=C/C(C)=C/C=C/C(C)=C/C=C/C=C(C)/C=C/C=C(C)/C=C/C1=C(C)C[C@@H](O)CC1(C)C` [lutein] has a visuognosis persistence increased of 10.27±8.56%.
